According to PMC7150648 (ACS infectious diseases, 2020):
Entries after “also recorded” stand apart in the source; their conditions may differ. Read-outs that look alike come from different tables or passages of the source.

What was measured:
[1] = molecular target: T1, LasR (Pseudomonas aeruginosa, UniProt P25084); conditions: P. aeruginosa LasR reporter; ref [30]; cited from earlier work
[2] = molecular target: T1, LasR; conditions: result in words; ref Wu et al., FASEB J. 2016; cited from earlier work
[3] = molecular target: T1, LasR; test: LasR antagonism, P. aeruginosa PAO-JP2 GFP reporter, in competition with OdDHL; type: cell-based
[4] = molecular target: LasR S129A mutant (Pseudomonas aeruginosa, UniProt P25084, S129A); test: E. coli LasR mutant reporter, S129A; type: cell-based; conditions: result in words
[5] = tested on: MexAB-OprM efflux pump; conditions: P. aeruginosa; ref [16]; cited from earlier work
[6] = molecular target: RhlR (Pseudomonas aeruginosa, UniProt P54292); test: E. coli RhlR β-galactosidase reporter; type: cell-based; conditions: result in words
[7] = molecular target: LasR Y56F mutant (Pseudomonas aeruginosa, UniProt P25084, Y56F); test: E. coli LasR mutant reporter, Y56F; type: cell-based; conditions: result in words
[8] = molecular target: T1, LasR; conditions: 50 μM compound; 16 h protein production
[9] = molecular target: QscR (Pseudomonas aeruginosa, UniProt G3XD77); type: cell-based; conditions: E. coli reporter; result in words
[10] = molecular target: LasR W60F mutant (Pseudomonas aeruginosa, UniProt P25084, W60F); test: E. coli LasR mutant reporter, W60F; type: cell-based; conditions: 100 μM vs OdDHL at its EC50; result in words
[11] = molecular target: T1, LasR; test: E. coli LasR β-galactosidase reporter, wild-type LasR; type: cell-based; conditions: result in words
[12] = molecular target: T1, LasR; test: LasR agonism, P. aeruginosa PAO-JP2 GFP reporter, compound alone; type: cell-based; conditions: result in words

In the case of `O=C(Cc1ccc(Br)cc1)N[C@H]1CCOC1=O` [4-bromo PHL], the IC50 [1] is listed as 116 µM.
In the case of `CCCCC[C@H](O)/C=C/C=C\C=C\C=C\[C@@H](O)[C@@H](O)CCCC(=O)O` [Lipoxin A], the IC50 [2] is given as “nanomolar IC50”.
For `CCCCCCCCCNC(=O)CC(=O)c1ccccc1` [V-06–018, N-nonyl-3-oxo-3-phenylpropanamide], the IC50 [3] was 3.9 µM, the “LasR antagonism, primary screen” value ([3]; PAO-JP2, compound 10 μM vs 150 nM OdDHL) was ~ 90% and the IC50 ([3]; PAO-JP2, vs 150 nM OdDHL (approximate EC50)) was 2.3 µM. For the same compound, the “Maximum Inhibition” value ([3]; PAO-JP2, vs 150 nM OdDHL, best-fit bottom of dose-response curve) was 89%, the “LasR S129A antagonism compared with wild-type LasR” value ([4]; 100 μM vs OdDHL at its EC50) was “significantly lesser extent than wild-type LasR” and the “LasR S129A agonism compared with wild-type LasR” value ([4]; 100 μM) was “significantly more than wild-type LasR”. For the same compound, the “active efflux by MexAB-OprM” value [5] was “not actively effluxed”, the “activity in RhlR (antagonist or agonist)” value [6] was “no activity (as either an antagonist or agonist)” and the “LasR Y56F antagonism compared with wild-type LasR” value ([7]; 100 μM vs OdDHL at its EC50) was “significantly lesser extent than wild-type LasR”. The “LasR Y56F agonism compared with wild-type LasR” value ([7]; 100 μM) was “significantly greater extent than wild-type LasR”, the “soluble (S) LasR band intensity relative to whole cell (WC) band” value [8] was ~ 7% and the “activity in QscR (antagonist or agonist)” value [9] was “only a very weak antagonist; also recorded: only a weak QscR antagonist”. The “LasR W60F antagonism compared with wild-type LasR” value [10] was “significantly lesser extent than wild-type LasR”, the “activity in LasR (antagonist in competition, agonist alone)” value [11] was “only an antagonist of LasR; also recorded: does not agonize wild-type LasR” and the “LasR activation in dose-response agonism curves” value [12] was “did not activate LasR”.
